Results published in patent US20220323406A1, “METHODS AND COMPOSITIONS FOR DIFFERENTIATING STEM CELLS” (Massachusetts Institute of Technology, priority 2019, published 2022).

Columns and labels:
[1] = tested on: ENR+CD organoids (ISC to Paneth cell differentiation); experiment: Primary screen: CCh-stimulated lysozyme secretion LYZ.S, 2.5-D 384-well ENR+CD organoid differentiation; type: cell-based, mouse; conditions: primary screen
Source text: (§1) High-throughput screening.

ENR+CD organoids = experiment: Primary screen: ATP (CellTiter-Glo 3D, CTG) cell number/viability, 2.5-D 384-well ENR+CD organoids; conditions: primary screen; for Z.CTG: standard z score;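 as to all read-outs here: compounds given at plating and again on day 3 over a 6-day differentiation from ENR+CV stem-cell-enriched precursors, ATP measured on day 6, plate median as control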
[2] = tested on: ENR+CD organoids (ISC to Paneth cell differentiation); experiment: Primary screen: basal (non-stimulated) lysozyme secretion LYZ.NS, 2.5-D 384-well ENR+CD organoid differentiation; type: cell-based, mouse; conditions: primary screen; for Z.LYZ.NS: standard z score
Source text: as §1

[3] = dose 0.08 uM, FC vs plate median
[4] = dose 0.40 uM, FC vs plate median
[5] = dose 2.00 uM, FC vs plate median
[6] = dose 10.00 uM, FC vs plate median
[7] = dose 0.08 uM, FC relative to plate median
[8] = dose 0.40 uM, FC relative to plate median
[9] = dose 2.00 uM, FC relative to plate median
[10] = dose 10.00 uM, FC relative to plate median

Row | Compound | Dose.FC.LYZ.S ([1]; dose 0.08 uM) | Dose.FC.LYZ.S ([1]; dose 0.40 uM) | Dose.FC.LYZ.S ([1]; dose 2.00 uM) | Dose.FC.LYZ.S ([1]; dose 10.00 uM) | Dose.FC.CTG (ENR+CD organoids; dose 0.08 uM) | Z.CTG (standard z score) (ENR+CD organoids; dose 0.08 uM) | Dose.FC.CTG (ENR+CD organoids; dose 0.40 uM) | Z.CTG (standard z score) (ENR+CD organoids; dose 0.40 uM) | Dose.FC.CTG (ENR+CD organoids; dose 2.00 uM) | Z.CTG (standard z score) (ENR+CD organoids; dose 2.00 uM) | Dose.FC.CTG (ENR+CD organoids; dose 10.00 uM) | Z.CTG (standard z score) (ENR+CD organoids; dose 10.00 uM) | Dose.FC.LYZ.NS ([2]; dose 0.08 uM) | Z.LYZ.NS (standard z score) ([2]; dose 0.08 uM) | Dose.FC.LYZ.NS ([2]; dose 0.40 uM) | Z.LYZ.NS (standard z score) ([2]; dose 0.40 uM) | Dose.FC.LYZ.NS ([2]; dose 2.00 uM) | Z.LYZ.NS (standard z score) ([2]; dose 2.00 uM) | Dose.FC.LYZ.NS ([2]; dose 10.00 uM) | Z.LYZ.NS (standard z score) ([2]; dose 10.00 uM) | further results
1 | COC1CCN(C(=O)c2cc(Cc3n[nH]c(=O)c4ccccc34)ccc2F)CC1 [AZD2461] | 0.097 log2 fold change | 0.015 log2 fold change | −0.100 log2 fold change | −0.224 log2 fold change | 0.073 log2 fold change | 0.174 | −0.040 log2 fold change | −0.095 | −0.232 log2 fold change | −0.555 | −0.336 log2 fold change | −0.803 | 0.038 log2 fold change | 0.334 | −0.038 log2 fold change | −0.327 | −0.074 log2 fold change | −0.641 | −0.172 log2 fold change | −1.497 | –
2 | CC(/C=C/C(=O)NO)=C\[C@@H](C)C(=O)c1ccc(N(C)C)cc1 [Trichostatin A (TSA)] | −0.124 log2 fold change | −0.254 log2 fold change | −0.210 log2 fold change | −0.202 log2 fold change | 0.191 log2 fold change | 0.457 | −0.801 log2 fold change | −1.913 | −0.904 log2 fold change | −2.159 | −0.826 log2 fold change | −1.974 | −0.064 log2 fold change | −0.554 | −0.195 log2 fold change | −1.697 | −0.153 log2 fold change | −1.334 | −0.149 log2 fold change | −1.298 | –
3 | CCCC(C)NC(=O)c1ccc(Cl)c(Cl)c1 (centres unmarked) [NSC 405020] | – | – | – | – | – | – | – | – | – | – | – | – | – | – | – | – | – | – | – | – | Dose.FC.LYZ.S [1, 3]: 0.014 log2 fold change; Dose.FC.LYZ.S [1, 4]: 0.093 log2 fold change; Dose.FC.LYZ.S [1, 5]: 0.002 log2 fold change; Dose.FC.LYZ.S [1, 6]: −0.061 log2 fold change; Z.CTG (ENR+CD organoids; dose 0.08 uM): −0.140; Z.CTG (ENR+CD organoids; dose 0.40 uM): −0.170; Z.CTG (ENR+CD organoids; dose 2.00 uM): −0.141; Z.CTG (ENR+CD organoids; dose 10.00 uM): −0.138; Dose.FC.CTG (ENR+CD organoids; [3]): −0.059 log2 fold change; Dose.FC.CTG (ENR+CD organoids; [4]): −0.071 log2 fold change; Dose.FC.CTG (ENR+CD organoids; [5]): −0.059 log2 fold change; Dose.FC.CTG (ENR+CD organoids; [6]): −0.058 log2 fold change; Z.LYZ.NS ([2]; dose 0.08 uM): 0.071; Z.LYZ.NS ([2]; dose 0.40 uM): −0.246; Z.LYZ.NS ([2]; dose 2.00 uM): 0.160; Z.LYZ.NS ([2]; dose 10.00 uM): −0.570; Dose.FC.LYZ.NS [2, 3]: 0.008 log2 fold change; Dose.FC.LYZ.NS [2, 4]: −0.028 log2 fold change; Dose.FC.LYZ.NS [2, 5]: 0.018 log2 fold change; Dose.FC.LYZ.NS [2, 6]: −0.065 log2 fold change
4 | Cc1ccc(C(=O)N(CCCN)[C@@H](c2oc3cc(Cl)ccc3c(=O)c2Cc2ccccc2)C(C)C)cc1 [SB743921] | – | – | – | – | – | – | – | – | – | – | – | – | – | – | – | – | – | – | – | – | Dose.FC.LYZ.S [1, 7]: −0.321 log2 fold change; Dose.FC.LYZ.S [1, 8]: −0.329 log2 fold change; Dose.FC.LYZ.S [1, 9]: −0.340 log2 fold change; Dose.FC.LYZ.S [1, 10]: −0.350 log2 fold change; Dose.FC.CTG (ENR+CD organoids; [7]): −0.485 log2 fold change; Z.CTG (ENR+CD organoids; dose 0.08 uM): −1.159; Dose.FC.CTG (ENR+CD organoids; [8]): −0.777 log2 fold change; Z.CTG (ENR+CD organoids; dose 0.40 uM): −1.855; Dose.FC.CTG (ENR+CD organoids; [9]): −0.485 log2 fold change; Z.CTG (ENR+CD organoids; dose 2.00 uM): −1.158; Dose.FC.CTG (ENR+CD organoids; [10]): −0.542 log2 fold change; Z.CTG (ENR+CD organoids; dose 10.00 uM): −1.294; Dose.FC.LYZ.NS [2, 7]: −0.232 log2 fold change; Z.LYZ.NS ([2]; dose 0.08 uM): −2.017; Dose.FC.LYZ.NS [2, 8]: −0.247 log2 fold change; Z.LYZ.NS ([2]; dose 0.40 uM): −2.148; Dose.FC.LYZ.NS [2, 9]: −0.264 log2 fold change; Z.LYZ.NS ([2]; dose 2.00 uM): −2.297; Dose.FC.LYZ.NS [2, 10]: −0.238 log2 fold change; Z.LYZ.NS ([2]; dose 10.00 uM): −2.068
